Data: the OligoGym collection
HELM strings list units from the 5' end as sugar, base in round brackets, then linkage (d deoxyribose, r ribose, m 2'-O-methyl, p phosphodiester). Strings are as the collection lists them; they lack the last nucleoside at the 3' end of the tested compound. [moe] = 2'-O-(2-methoxyethyl) (MOE); [sp] = phosphorothioate linkage; [m5C] = 5-methylcytosine

Each substance was assayed against LRRK2 (assay: mouse, dose not given). Settings: ASO.
“RNA1{[moe](A)[sp].[moe]([m5C])p.[moe](G)p.[moe]([m5C])p.[moe](A)[sp].d([m5C])[sp].d(T)[sp].d(T)[sp].d(A)[sp].d(A)[sp].d([m5C])[sp].d(A)[sp].d(A)[sp].d(T)[sp].d(A)[sp].[moe](T)p.[moe]([m5C])p.[moe](A)[sp].[moe](T)}$$$$ (last 3' nucleoside missing)” showed a 3 h FOB score of 0 score 0-7. In the case of “RNA1{[moe](T)[sp].[moe](G)p.[moe](A)[sp].[moe](G)[sp].[moe](T)[sp].d(G)[sp].d([m5C])[sp].d(A)[sp].d(T)[sp].d(G)[sp].d(G)[sp].d([m5C])[sp].d(A)[sp].d(T)[sp].d([m5C])[sp].[moe](A)[sp].[moe](A)p.[moe](A)[sp].[moe](A)}$$$$ (last 3' nucleoside missing)”, the 3 h FOB score is reported as 5 score 0-7. With “RNA1{[moe](T)[sp].[moe](T)p.[moe]([m5C])[sp].[moe](A)[sp].[moe](T)[sp].d(T)[sp].d([m5C])[sp].d(G)[sp].d(G)[sp].d(T)[sp].d(T)[sp].d(A)[sp].d(T)[sp].d(A)[sp].d(A)[sp].[moe](G)[sp].[moe](G)p.[moe]([m5C])[sp].[moe](A)}$$$$ (last 3' nucleoside missing)” the 3 h FOB score was 6 score 0-7. “RNA1{[moe]([m5C])[sp].[moe](A)p.[moe](T)[sp].[moe](T)[sp].[moe]([m5C])[sp].d(G)[sp].d(G)[sp].d(T)[sp].d(T)[sp].d(A)[sp].d(T)[sp].d(A)[sp].d(A)[sp].d(G)[sp].d(G)[sp].[moe]([m5C])[sp].[moe](A)p.[moe]([m5C])[sp].[moe](A)}$$$$ (last 3' nucleoside missing)” was tested, and the 3 h FOB score was 7 score 0-7.
